Measured values as given in ChEMBL document CHEMBL5625219, “Design, synthesis fusidic acid derivatives alleviate acute lung injury via inhibiting MAPK/NF-κB/NLRP3 pathway” (Eur J Med Chem, 2023).

Columns and labels:
[1] = Cytotoxicity against mouse RAW264.7 cells assessed as inhibition of cell growth incubated for 24 hrs by MTT assay; assay type: toxicity, cell-based
RAW264.7 = assay: Cytotoxicity against mouse RAW264.7 cells assessed as reduction in cell viability at 30 uM incubated for 24 hrs by MTT assay relative to control; assay type: toxicity, cell-based; conditions: raw264.7, 24 h

| Compound | IC50 at 24 h [1] | Activity (RAW264.7) |
| --- | --- | --- |
| CC(=O)O[C@H]1C[C@@]2(C)[C@@H](C[C@@H](O)[C@H]3[C@@]4(C)CC[C@@H](O)[C@@H](C)[C@@H]4CC[C@@]32C)/C1=C(\CCC=C(C)C)C(=O)OCc1cn(Cc2ccc(C)cc2)nn1 | 121 µM | 105.96% |
| COc1cc(Cn2cc(COC(=O)/C(CCC=C(C)C)=C3\[C@@H](OC(C)=O)C[C@@]4(C)[C@H]3C[C@@H](O)[C@H]3[C@@]5(C)CC[C@@H](O)[C@@H](C)[C@@H]5CC[C@@]34C)nn2)cc(OC)c1OC | 56.1 µM | 97.45% |
| CC(=O)O[C@H]1C[C@@]2(C)[C@@H](C[C@@H](O)[C@H]3[C@@]4(C)CC[C@@H](O)[C@@H](C)[C@@H]4CC[C@@]32C)/C1=C(\CCC=C(C)C)C(=O)OCc1cc(-c2ccc(C)cc2)no1 | 75.9 µM | 104.48% |
| COc1ccc(-c2nnc(COC(=O)/C(CCC=C(C)C)=C3\[C@@H](OC(C)=O)C[C@@]4(C)[C@H]3C[C@@H](O)[C@H]3[C@@]5(C)CC[C@@H](O)[C@@H](C)[C@@H]5CC[C@@]34C)o2)cc1 | 114 µM | 101.7% |
| CC(=O)O[C@H]1C[C@@]2(C)[C@@H](C[C@@H](O)[C@H]3[C@@]4(C)CC[C@@H](O)[C@@H](C)[C@@H]4CC[C@@]32C)/C1=C(\CCC=C(C)C)C(=O)OCc1cn(-c2ccc(C)cc2)nn1 | 89.6 µM | 96.68% |
| CC(=O)O[C@H]1C[C@@]2(C)[C@@H](C[C@@H](O)[C@H]3[C@@]4(C)CC[C@@H](O)[C@@H](C)[C@@H]4CC[C@@]32C)/C1=C(\CCC=C(C)C)C(=O)OCc1cn(Cc2ccc([N+](=O)[O-])cc2)nn1 | 56.8 µM | 101.85% |
| CC(=O)O[C@H]1C[C@@]2(C)[C@@H](C[C@@H](O)[C@H]3[C@@]4(C)CC[C@@H](O)[C@@H](C)[C@@H]4CC[C@@]32C)/C1=C(\CCC=C(C)C)C(=O)OCc1cc(-c2ccc(F)cc2)no1 | 62.4 µM | 103.63% |
| CC(=O)O[C@H]1C[C@@]2(C)[C@@H](C[C@@H](O)[C@H]3[C@@]4(C)CC[C@@H](O)[C@@H](C)[C@@H]4CC[C@@]32C)/C1=C(\CCC=C(C)C)C(=O)OCc1cn(-c2ccc([N+](=O)[O-])cc2)nn1 | 120 µM | 101.62% |
| CC(=O)O[C@H]1C[C@@]2(C)[C@@H](C[C@@H](O)[C@H]3[C@@]4(C)CC[C@@H](O)[C@@H](C)[C@@H]4CC[C@@]32C)/C1=C(\CCC=C(C)C)C(=O)OCc1cn(-c2ccc(Cl)cc2)nn1 | 119 µM | 101.39% |
| CC(=O)O[C@H]1C[C@@]2(C)[C@@H](C[C@@H](O)[C@H]3[C@@]4(C)CC[C@@H](O)[C@@H](C)[C@@H]4CC[C@@]32C)/C1=C(\CCC=C(C)C)C(=O)OCc1nnc(-c2ccccc2)o1 | 40.1 µM | 102.94% |
| CC(=O)O[C@H]1C[C@@]2(C)[C@@H](C[C@@H](O)[C@H]3[C@@]4(C)CC[C@@H](O)[C@@H](C)[C@@H]4CC[C@@]32C)/C1=C(\CCC=C(C)C)C(=O)OCc1cn(-c2ccc(Br)cc2)nn1 | 54.5 µM | 92.58% |
| CC(=O)O[C@H]1C[C@@]2(C)[C@@H](C[C@@H](O)[C@H]3[C@@]4(C)CC[C@@H](O)[C@@H](C)[C@@H]4CC[C@@]32C)/C1=C(\CCC=C(C)C)C(=O)OCc1cc(-c2ccc(Br)cc2)no1 | 40.9 µM | 96.29% |
| COc1ccc(-c2cc(COC(=O)/C(CCC=C(C)C)=C3\[C@@H](OC(C)=O)C[C@@]4(C)[C@H]3C[C@@H](O)[C@H]3[C@@]5(C)CC[C@@H](O)[C@@H](C)[C@@H]5CC[C@@]34C)on2)cc1OC | 87.3 µM | 100.7% |
| CC(=O)O[C@H]1C[C@@]2(C)[C@@H](C[C@@H](O)[C@H]3[C@@]4(C)CC[C@@H](O)[C@@H](C)[C@@H]4CC[C@@]32C)/C1=C(\CCC=C(C)C)C(=O)OCc1cn(-c2ccc(Cl)c(Cl)c2)nn1 | 56.1 µM | 104.17% |
| CC(=O)O[C@H]1C[C@@]2(C)[C@@H](C[C@@H](O)[C@H]3[C@@]4(C)CC[C@@H](O)[C@@H](C)[C@@H]4CC[C@@]32C)/C1=C(\CCC=C(C)C)C(=O)OCc1cn(Cc2ccccc2)nn1 | 88.3 µM | 98.53% |
| COc1ccc(Cn2cc(COC(=O)/C(CCC=C(C)C)=C3\[C@@H](OC(C)=O)C[C@@]4(C)[C@H]3C[C@@H](O)[C@H]3[C@@]5(C)CC[C@@H](O)[C@@H](C)[C@@H]5CC[C@@]34C)nn2)cc1 | 110 µM | 100.31% |
| COc1cc(-c2nnc(COC(=O)/C(CCC=C(C)C)=C3\[C@@H](OC(C)=O)C[C@@]4(C)[C@H]3C[C@@H](O)[C@H]3[C@@]5(C)CC[C@@H](O)[C@@H](C)[C@@H]5CC[C@@]34C)o2)cc(OC)c1OC | 129 µM | 97.84% |

| Compound | IC50 at 24 h [1] | Activity (RAW264.7) |
| --- | --- | --- |
| CC(=O)O[C@H]1C[C@@]2(C)[C@@H](C[C@@H](O)[C@H]3[C@@]4(C)CC[C@@H](O)[C@@H](C)[C@@H]4CC[C@@]32C)/C1=C(\CCC=C(C)C)C(=O)OCc1cn(Cc2ccc(Cl)cc2)nn1 | 72.5 µM | 90.57% |
| CC(=O)O[C@H]1C[C@@]2(C)[C@@H](C[C@@H](O)[C@H]3[C@@]4(C)CC[C@@H](O)[C@@H](C)[C@@H]4CC[C@@]32C)/C1=C(\CCC=C(C)C)C(=O)OCc1cn(Cc2ccc(Cl)c(Cl)c2)nn1 | 49.8 µM | 100.62% |
| COc1cc(-n2cc(COC(=O)/C(CCC=C(C)C)=C3\[C@@H](OC(C)=O)C[C@@]4(C)[C@H]3C[C@@H](O)[C@H]3[C@@]5(C)CC[C@@H](O)[C@@H](C)[C@@H]5CC[C@@]34C)nn2)cc(OC)c1OC | 120 µM | 98.92% |
| CC(=O)O[C@H]1C[C@@]2(C)[C@@H](C[C@@H](O)[C@H]3[C@@]4(C)CC[C@@H](O)[C@@H](C)[C@@H]4CC[C@@]32C)/C1=C(\CCC=C(C)C)C(=O)OCc1nnc(-c2ccc(Cl)cc2)o1 | 44.3 µM | 103.01% |
| COc1ccc(-c2cc(COC(=O)/C(CCC=C(C)C)=C3\[C@@H](OC(C)=O)C[C@@]4(C)[C@H]3C[C@@H](O)[C@H]3[C@@]5(C)CC[C@@H](O)[C@@H](C)[C@@H]5CC[C@@]34C)on2)cc1 | 77.2 µM | 97.68% |
| CC(=O)O[C@H]1C[C@@]2(C)[C@@H](C[C@@H](O)[C@H]3[C@@]4(C)CC[C@@H](O)[C@@H](C)[C@@H]4CC[C@@]32C)/C1=C(\CCC=C(C)C)C(=O)OCc1cc(-c2ccccc2)no1 | 93 µM | 104.11% |
| COc1ccc(-n2cc(COC(=O)/C(CCC=C(C)C)=C3\[C@@H](OC(C)=O)C[C@@]4(C)[C@H]3C[C@@H](O)[C@H]3[C@@]5(C)CC[C@@H](O)[C@@H](C)[C@@H]5CC[C@@]34C)nn2)cc1 | 43.6 µM | 99.38% |
| CC(=O)O[C@H]1C[C@@]2(C)[C@@H](C[C@@H](O)[C@H]3[C@@]4(C)CC[C@@H](O)[C@@H](C)[C@@H]4CC[C@@]32C)/C1=C(\CCC=C(C)C)C(=O)OCc1cn(-c2ccc(F)cc2)nn1 | 46.5 µM | 100.85% |
| CC(=O)O[C@H]1C[C@@]2(C)[C@@H](C[C@@H](O)[C@H]3[C@@]4(C)CC[C@@H](O)[C@@H](C)[C@@H]4CC[C@@]32C)/C1=C(\CCC=C(C)C)C(=O)OCc1cn(Cc2ccc(F)cc2)nn1 | 68.7 µM | 103.74% |
| COc1cc(-c2cc(COC(=O)/C(CCC=C(C)C)=C3\[C@@H](OC(C)=O)C[C@@]4(C)[C@H]3C[C@@H](O)[C@H]3[C@@]5(C)CC[C@@H](O)[C@@H](C)[C@@H]5CC[C@@]34C)on2)cc(OC)c1OC | 50.6 µM | 95.67% |
| CC(=O)O[C@H]1C[C@@]2(C)[C@@H](C[C@@H](O)[C@H]3[C@@]4(C)CC[C@@H](O)[C@@H](C)[C@@H]4CC[C@@]32C)/C1=C(\CCC=C(C)C)C(=O)OCc1cn(Cc2ccc(Br)cc2)nn1 | 88.7 µM | 100.93% |
| CC(=O)O[C@H]1C[C@@]2(C)[C@@H](C[C@@H](O)[C@H]3[C@@]4(C)CC[C@@H](O)[C@@H](C)[C@@H]4CC[C@@]32C)/C1=C(\CCC=C(C)C)C(=O)OCc1nnc(-c2ccc(F)cc2)o1 | 47.9 µM | 102.47% |
| CC(=O)O[C@H]1C[C@@]2(C)[C@@H](C[C@@H](O)[C@H]3[C@@]4(C)CC[C@@H](O)[C@@H](C)[C@@H]4CC[C@@]32C)/C1=C(\CCC=C(C)C)C(=O)OCc1cc(-c2ccc(Cl)cc2)no1 | 42 µM | 103.94% |
| COc1ccc(-n2cc(COC(=O)/C(CCC=C(C)C)=C3\[C@@H](OC(C)=O)C[C@@]4(C)[C@H]3C[C@@H](O)[C@H]3[C@@]5(C)CC[C@@H](O)[C@@H](C)[C@@H]5CC[C@@]34C)nn2)cc1OC | 76.6 µM | 102.78% |
| CC(=O)O[C@H]1C[C@@]2(C)[C@@H](C[C@@H](O)[C@H]3[C@@]4(C)CC[C@@H](O)[C@@H](C)[C@@H]4CC[C@@]32C)/C1=C(\CCC=C(C)C)C(=O)OCc1cc(-c2ccc(Cl)c(Cl)c2)no1 | 44.6 µM | 94.05% |
| CC(=O)O[C@H]1C[C@@]2(C)[C@@H](C[C@@H](O)[C@H]3[C@@]4(C)CC[C@@H](O)[C@@H](C)[C@@H]4CC[C@@]32C)/C1=C(\CCC=C(C)C)C(=O)OCc1nnc(-c2ccc([N+](=O)[O-])cc2)o1 | 100 µM | 103.17% |
